Tests used:
[1] = tested on: PKC (from rats' brains); details: cited from earlier work
[2] = tested on: PKC; assay: PKC inhibition (partially purified PKC, Ca2+, phosphatidylserine and 1-oleoyl-2-acetylglycerol, histone III-S substrate); format: biochemical, rat
Source text: (§1) The PKC was partially purified from rat brain and assayed in the presence of its activators: Ca^2+, phosphatidylserine and 1-oleoyl-2-acetylglycerol. Histone III-S was used as phosphate acceptor. The MLCK was native enzyme from chicken gizzard fully activated by calmodulin. Kemptamide was used as phosphate acceptor.

[3] = target: T1, MLCK (Gallus gallus, UniProt P11799); assay: MLCK inhibition (native enzyme from chicken gizzard, calmodulin activated, Kemptamide substrate); format: biochemical
T1 construct: Kemptamide as substrate
Source text: as §1

[4] = tested on: SHR and DOC-rats; details: cited from earlier work

CC12OC(CC1(O)C(=O)O)n1c3ccccc3c3c4c(c5c6ccccc6n2c5c31)CNC4=O (centres unmarked) [Example K252b]
PKC inhibitory potency (in words) [1]: inhibitory to PKC (from rats' brains) with good potency, in the nanomolar range

COC(=O)[C@@]1(O)C[C@H]2O[C@]1(C)n1c3ccccc3c3c4c(c5c6ccccc6n2c5c31)C(=O)NC4 [Example K-252a]
potency at PKC (in words) [2]: nanomolar potencies | potency at MLCK (in words) [3]: nanomolar potencies | lowering of blood pressure (in words) [4]: lowers blood pressure in SHR and DOC-rats | PKC inhibitory potency (in words) [1]: inhibitory to PKC (from rats' brains) with good potency, in the nanomolar range
